Reference: patent publication US8889370B2, “Method of determining inhibitors of coagulation” (Siemens Healthcare Diagnostics Products GmbH, priority 2010, dated 2014)
Read-outs that look alike come from different tables or passages of the source.

Target: T1, factor Xa (Homo sapiens, UniProt P00742)
T1 construct: an F Xa reagent consisting of a lyophilized plasma fraction containing factor Xa; purchased Siemens Healthcare Diagnostics (Berichrom heparin assay, F Xa reagent); host or cells: plasma fraction
T1 sequence (P00742 235-488 limits assumed): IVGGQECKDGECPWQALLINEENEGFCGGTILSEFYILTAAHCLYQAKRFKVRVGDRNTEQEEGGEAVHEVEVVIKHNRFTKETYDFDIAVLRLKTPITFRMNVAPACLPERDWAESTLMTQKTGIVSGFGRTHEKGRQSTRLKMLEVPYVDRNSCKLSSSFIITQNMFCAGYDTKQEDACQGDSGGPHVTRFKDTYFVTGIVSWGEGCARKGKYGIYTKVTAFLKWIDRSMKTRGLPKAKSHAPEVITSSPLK
T1 sequence (P00742 41-179 partner limits assumed): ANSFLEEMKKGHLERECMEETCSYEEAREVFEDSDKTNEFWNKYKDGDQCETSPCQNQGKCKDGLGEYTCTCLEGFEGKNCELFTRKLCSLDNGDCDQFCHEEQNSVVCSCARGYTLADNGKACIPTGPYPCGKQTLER
Experiment: Determination of the F Xa binding constant (Ki) of peptide aldehyde ligands, chromogenic assay with Berichrom heparin assay reagents, Dixon plot
Format: biochemical
Procedure: The kinetic data of the peptide aldehyde ligands were determined in chromogenic assay formats by measuring the rate of hydrolysis of chromogenic peptide substrates which compete with the peptide aldehyde ligands for binding to the active site of the particular enzyme, at various substrate concentrations and peptide aldehyde-ligand concentrations. The binding constant (Ki) was determined by a known method (Dixon, M., 1953, Biochem J, 55, 170-171).
The F Xa binding constant was determined using the reagents of the Berichrom® heparin assay from Siemens Healthcare Diagnostics. The Berichrom® heparin assay consists of: an F Xa reagent consisting of a lyophilized plasma fraction containing factor Xa, and additives such as Tris, NaCl, EDTA and preservatives, a chromogenic substrate reagent (Z-D-Leu-Gly-Arg-ANBA-methyl-amide), a dilution reagent for reconstitution, and a dextran sulfate reagent consisting of lyophilized dextran sulfate.
After reconstitution in 10 ml of dilution reagent, the dextran sulfate concentration is 0.02 g/l. The F Xa reagent is reconstituted with the reconstituted dextran sulfate reagent. The substrate reagent, after constitution with 2 ml of deionized water, contains 4 mmol/l Z-D-Leu-Gly-Arg-ANBA-methyl-amide. Dilutions of the substrate reagent were prepared with deionized water. The peptide aldehyde ligands prepared according to example 1 were dissolved in water and used as sample. The assays were carried out automatically in a BCS® XP coagulation analyzer (Siemens Healthcare Diagnostics, Marburg, Germany).
A reaction mix was mixed together as follows:
15 μl of sample (peptide aldehyde ligand B-r-G-R—H or B-f-P—R—H), […]
30 μl of substrate reagent (Z-D-Leu-Gly-Arg-ANBA-methyl-amide).
The reaction rate in mE/min was determined on the basis of the increase in optical density of the reaction mix at a wavelength of 405 nm. For this, the optical density of the reaction mixes was determined in a time interval from 10 to 70 seconds.

SMILES: N=C(N)NCCC[C@@H](C=O)NC(=O)CNC(=O)[C@@H](CCCNC(=N)N)NC(=O)CCC(=O)NCCCOCCOCCOCCCNC(=O)CCCC[C@@H]1SC[C@@H]2NC(=O)N[C@@H]21 [B-r-G-R-H, biotinyl-Ttds-D-Arg-Gly-Arg-H]
- 1/Reaction rate (CB-r-G-R-H 0.20380 μM, Csubstrate = 0.5 mM): 5.521 min/E
- 1/Reaction rate (CB-r-G-R-H 0.20380 μM, Csubstrate = 2 mM): 1.457 min/E
- 1/Reaction rate (CB-r-G-R-H 0.20380 μM, Csubstrate = 4 mM): 0.8262 min/E
- 1/Reaction rate (CB-r-G-R-H 0.32609 μM, Csubstrate = 0.5 mM): 6.13 min/E
- 1/Reaction rate (CB-r-G-R-H 0.32609 μM, Csubstrate = 2 mM): 1.612 min/E
- 1/Reaction rate (CB-r-G-R-H 0.32609 μM, Csubstrate = 4 mM): 0.9061 min/E
- 1/Reaction rate (CB-r-G-R-H 0.40761 μM, Csubstrate = 0.5 mM): 6.408 min/E
- 1/Reaction rate (CB-r-G-R-H 0.40761 μM, Csubstrate = 2 mM): 1.659 min/E
- 1/Reaction rate (CB-r-G-R-H 0.40761 μM, Csubstrate = 4 mM): 0.9259 min/E
- 1/Reaction rate (CB-r-G-R-H 0.65217 μM, Csubstrate = 0.5 mM): 7.754 min/E
- 1/Reaction rate (CB-r-G-R-H 0.65217 μM, Csubstrate = 2 mM): 1.975 min/E
- 1/Reaction rate (CB-r-G-R-H 0.65217 μM, Csubstrate = 4 mM): 1.099 min/E
- 1/Reaction rate (CB-r-G-R-H 0.81522 μM, Csubstrate = 0.5 mM): 8.403 min/E
- 1/Reaction rate (CB-r-G-R-H 0.81522 μM, Csubstrate = 2 mM): 2.115 min/E
- 1/Reaction rate (CB-r-G-R-H 0.81522 μM, Csubstrate = 4 mM): 1.177 min/E
- 1/Reaction rate (CB-r-G-R-H 1.30435 μM, Csubstrate = 0.5 mM): 12.05 min/E
- 1/Reaction rate (CB-r-G-R-H 1.30435 μM, Csubstrate = 2 mM): 2.802 min/E
- 1/Reaction rate (CB-r-G-R-H 1.30435 μM, Csubstrate = 4 mM): 1.476 min/E
- 1/Reaction rate (CB-r-G-R-H 1.63043 μM, Csubstrate = 0.5 mM): 13.97 min/E
- 1/Reaction rate (CB-r-G-R-H 1.63043 μM, Csubstrate = 2 mM): 3.147 min/E
- 1/Reaction rate (CB-r-G-R-H 1.63043 μM, Csubstrate = 4 mM): 1.679 min/E
- 1/Reaction rate (CB-r-G-R-H 2.60870 μM, Csubstrate = 0.5 mM): 20.14 min/E
- 1/Reaction rate (CB-r-G-R-H 2.60870 μM, Csubstrate = 2 mM): 4.627 min/E
- 1/Reaction rate (CB-r-G-R-H 2.60870 μM, Csubstrate = 4 mM): 2.274 min/E
- 1/Reaction rate (CB-r-G-R-H 3.26087 μM, Csubstrate = 0.5 mM): 26.42 min/E
- 1/Reaction rate (CB-r-G-R-H 3.26087 μM, Csubstrate = 2 mM): 5.52 min/E
- 1/Reaction rate (CB-r-G-R-H 3.26087 μM, Csubstrate = 4 mM): 2.728 min/E
- 1/Reaction rate (CB-r-G-R-H 4.89130 μM, Csubstrate = 0.5 mM): 37.79 min/E
- 1/Reaction rate (CB-r-G-R-H 4.89130 μM, Csubstrate = 2 mM): 8.244 min/E
- 1/Reaction rate (CB-r-G-R-H 4.89130 μM, Csubstrate = 4 mM): 3.745 min/E
- 1/Reaction rate (CB-r-G-R-H 6.52174 μM, Csubstrate = 0.5 mM): 52.69 min/E
- 1/Reaction rate (CB-r-G-R-H 6.52174 μM, Csubstrate = 2 mM): 10.45 min/E
- 1/Reaction rate (CB-r-G-R-H 6.52174 μM, Csubstrate = 4 mM): 4.819 min/E
- 1/Reaction rate (CB-r-G-R-H 8.15217 μM, Csubstrate = 0.5 mM): 62.32 min/E
- 1/Reaction rate (CB-r-G-R-H 8.15217 μM, Csubstrate = 2 mM): 12.99 min/E
- 1/Reaction rate (CB-r-G-R-H 8.15217 μM, Csubstrate = 4 mM): 5.669 min/E
- 1/Reaction rate (CB-r-G-R-H 13.04348 μM, Csubstrate = 0.5 mM): 98.11 min/E
- 1/Reaction rate (CB-r-G-R-H 13.04348 μM, Csubstrate = 2 mM): 19.61 min/E
- 1/Reaction rate (CB-r-G-R-H 13.04348 μM, Csubstrate = 4 mM): 8.47 min/E
- Intersect of regression curve 1/reaction rate vs ligand concentration (Csubstrate 0.5 mM): 2.8743 min/E
- Slope of regression curve 1/reaction rate vs ligand concentration (Csubstrate 0.5 mM): 7.3110 min/E μM
- Intersect of regression curve 1/reaction rate vs ligand concentration (Csubstrate 2 mM): 1.0169 min/E
- Slope of regression curve 1/reaction rate vs ligand concentration (Csubstrate 2 mM): 1.4375 min/E μM
- Intersect of regression curve 1/reaction rate vs ligand concentration (Csubstrate 4 mM): 0.7187 min/E
- Slope of regression curve 1/reaction rate vs ligand concentration (Csubstrate 4 mM): 0.6037 min/E μM
- Ki (intersection of regression curves Csubstrate 2 and 0.5 mM, read-out: Ki2&3 F Xa binding constant): 0.316 µM
- Ki (intersection of regression curves Csubstrate 4 and 0.5 mM, read-out: Ki1&3 F Xa binding constant): 0.321 µM
- Ki (intersection of regression curves Csubstrate 4 and 2 mM, read-out: Ki1&2 F Xa binding constant): 0.358 µM
- binding of the peptide aldehyde with F Xa (reversible or irreversible) (intersections of regression curves not on the x axis): reversible
- Ki (read-out: average F Xa binding constant KiM): 0.332 µM
